From PubChem BioAssay (NCI) come the findings set out here.

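Method: 48-hour compound exposure of cells in 96-well plates, five concentrations, linear interpolation of endpoints. TGI is the concentration that stops growth completely.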

Test systems include LXFL 529 NSCLC; RXF-631 renal; MCF7 breast; MDA-N; NCI/ADR-RES ovarian; PC-3 prostate.
Test in all cases: inhibition of tumour cell growth, NCI panel, 48 h

For the molecule `Cc1cc2c(=O)cc(-c3ccc(Cl)cc3Cl)oc2c(C(=O)O)c1C`, the TGI in the experiment with LXFL 529 NSCLC was greater than 100 µM.
As for `CC(=O)OC1C(COC(N)=O)OC(n2c(-c3ccc(C)cc3)cc(-c3ccccc3)c(C#N)c2=O)C(OC(C)=O)C1OC(C)=O` (configuration not stated), the TGI in the experiment with LXFL 529 NSCLC and with RXF-631 renal was greater than 100 µM each time.
With `CCC(CO)COC(=O)/C=C/C(=O)OCC(CC)CO` (configuration not stated), the TGI with LXFL 529 NSCLC and in the experiment on RXF-631 renal was greater than 100 µM throughout.
For `CCOc1ccc(N=C2NC(=O)C(CC(=O)Nc3ccc(Cl)cc3Cl)S2)cc1` (configuration not stated), the TGI in the experiment with LXFL 529 NSCLC and with RXF-631 renal was greater than 100 µM each time.
On to `C=CCC1=C2CCCCC2CCC1=O` (configuration not stated), for which the TGI in the experiment with LXFL 529 NSCLC and with RXF-631 renal was greater than 100 µM each time.
`CC1OC(n2ccc3ccc([N+](=O)[O-])cc32)C(O)C(O)C1O` (configuration not stated) returned a TGI in the experiment with LXFL 529 NSCLC greater than 100 µM.
Take `COc1ccc(/C=C2\C(=O)Nc3ccccc32)cc1OC`: in the experiment with LXFL 529 NSCLC, the TGI was greater than 100 µM.
On the same count and under the same terms, then `Cc1cc2c(=O)cc(-c3ccc(Cl)c(Cl)c3)oc2c(C(=O)O)c1C`, with greater than 100 µM; and `OCC(O)COc1ccc(F)cc1` (configuration not stated), with greater than 100 µM; and `O=C1C2=C(c3ccccc31)C(c1ccccc1Cl)NC(=S)N2` (configuration not stated), with greater than 100 µM.
On to `Cc1cc2c(=O)cc(-c3ccc(C(=O)O)cc3)oc2c(C(N)=O)c1C`, for which the TGI with LXFL 529 NSCLC and with RXF-631 renal was greater than 100 µM in each case.
Consider `CCOC(=O)c1sc(Nc2cc(Cl)ccc2Cl)nc1C`, for which the TGI in the experiment on LXFL 529 NSCLC and in the experiment on RXF-631 renal was greater than 100 µM each time.
Regarding `CN1C(=O)CNS1(=O)=O`, the TGI in the experiment on LXFL 529 NSCLC and in the experiment with RXF-631 renal was greater than 100 µM throughout.
As to `COC(=O)c1oc([N+](=O)[O-])c(-c2ccccc2)c1-c1ccccc1`, the TGI in the experiment on LXFL 529 NSCLC and in the experiment on RXF-631 renal was greater than 100 µM throughout.
Consider `c1ccc2c(CNCCCN3CCN(CCCNCc4cccc5ccccc45)CC3)cccc2c1`, for which the figures for the TGI in the experiment with LXFL 529 NSCLC and with RXF-631 renal were 3.17 µM and 2.41 µM, respectively.
With `NC(=S)N/N=C/c1cn(CCCl)c2ccccc12`, the TGI in the experiment with LXFL 529 NSCLC was greater than 100 µM.
Take `CCCCN(CCCC)C(=O)C(=O)C(C(=O)C(=O)OC)c1nc2ccccc2o1` (configuration not stated): the TGI with LXFL 529 NSCLC and with RXF-631 renal was greater than 100 µM each time.
Turning to `O=C(CSc1nc(-c2ccccc2)c(-c2ccccc2)[nH]1)N/N=C/c1ccc([N+](=O)[O-])cc1`, the TGI in the experiment with LXFL 529 NSCLC amounted to 38.3 µM.
With `CNC(=O)N(CCCC(NC(C)=O)C(=O)NCc1ccccc1)Cc1ccccc1` (configuration not stated), the TGI in the experiment with LXFL 529 NSCLC is greater than 100 µM.
Consider `Cc1ccccc1C(C#N)/C(=N/NC(N)=S)C(=O)Nc1c(C)cccc1C` (configuration not stated), for which the TGI in the experiment on LXFL 529 NSCLC and in the experiment on RXF-631 renal was greater than 100 µM throughout.
Consider `N#CCC(=O)N/N=C(/C(=O)Nc1ccccc1)C1C(=O)N(c2ccccc2)N=C1N` (configuration not stated), for which the TGI in the experiment with LXFL 529 NSCLC and in the experiment with RXF-631 renal was greater than 100 µM throughout.
`COC1OC(CO)C(O)C(NC(=O)N(C)N=O)C1O` (configuration not stated) showed a TGI in the experiment with LXFL 529 NSCLC greater than 100 µM.
Take `CN1C[C@@H]2CC(=O)CC[C@@H]2C[C@H]1C#N`: the TGI in the experiment on LXFL 529 NSCLC and in the experiment on RXF-631 renal was greater than 100 µM each time.
As to `O=C(O)COc1ccc2c3c1C(=O)CCC3CO2` (configuration not stated), the TGI in the experiment on LXFL 529 NSCLC is greater than 100 µM.
`CC1=CC=C2C(C)(C)CC[C@@H]3OC(=O)[C@H]1[C@]23C`: the TGI in the experiment on LXFL 529 NSCLC and in the experiment on RXF-631 renal was greater than 100 µM throughout.
As for `CC[C@H]1[C@@H](C)C=C[C@@H](C)N1S(=O)(=O)c1ccc(C)cc1`, the TGI is greater than 100 µM with LXFL 529 NSCLC and 30.4 µM in the experiment with RXF-631 renal.
For the molecule `O=C(Cc1c(C(=O)Nc2ccccc2)sc(C(=O)Nc2ccccc2)c1CC(=O)Nc1ccccc1)Nc1ccccc1`, the TGI with LXFL 529 NSCLC was greater than 100 µM.
On to `COC(=O)C(=O)C(C(=O)C(=O)Nc1ccccc1C(N)=O)c1nc2ccc([N+](=O)[O-])cc2[nH]c1=O` (configuration not stated), for which the TGI in the experiment with LXFL 529 NSCLC and in the experiment on RXF-631 renal was greater than 100 µM in each case.
Turning to `Cc1ccc(S(=O)OC2c3ccccc3Cc3ccccc32)cc1` (configuration not stated), the TGI in the experiment with LXFL 529 NSCLC was determined as 31.1 µM; with RXF-631 renal, 40.2 µM.
The matching figures for `S=C1NC(c2ccccc2)=NC(Cc2ccccc2)(c2ccccc2)N1c1ccccc1` (configuration not stated): greater than 100 µM and greater than 100 µM.
The matching figures for `Cc1cc2c(cc1C)[n+](=O)c(C(=O)CC(=O)C(=O)Nc1ccccc1C)c(C)n2[O-]`: greater than 100 µM and greater than 100 µM.
As to `CN(CC(=O)O)S(=O)(=O)c1ccc(Cl)cc1`, in the experiment with LXFL 529 NSCLC, the TGI was greater than 100 µM.
`OC1CCC(COC(c2ccccc2)(c2ccccc2)c2ccccc2)O1` (configuration not stated): the TGI in the experiment on MCF7 breast came to 33.3 µM; in the experiment on MDA-N, 34.5 µM; in the experiment with NCI/ADR-RES ovarian, 48.3 µM; with PC-3 prostate, 24.3 µM.
On to `S=c1sc2sc(=S)sc2s1`, for which the TGI in the experiment on LXFL 529 NSCLC is 26.9 µM; in the experiment on RXF-631 renal it was 39.1 µM.
